From doi:10.1101/2025.04.10.648262, “Time-resolved phenotyping at subcellular resolution reveals shared principles and key trade-offs across antimicrobial peptide activities” (bioRxiv, 2026)
Like-named read-outs stand apart in the source and are kept apart here. Ends that are not written are not given here.

Assays:
[1] = test system: E. coli (MG1655); assay type: cell-based, Escherichia coli; details: MG1655, 20 h
Procedure: For all experiments and E. coli strains, cells were grown in a medium (M9gluCAAT) with M9 salts (33.7 mM Na2HPO4, 22mM KH2PO4, 8.55 mM NaCl, 9.35 mM NH4Cl), 0.2% (w/v) glucose, 0.4% (w/v) casamino acids, 1 mM MgSO4, 0.3 mM CaCl2, 1 μg/mL thiamine, and trace elements (13.4 mM ethylene-diamine-tetra-acetic-acid (EDTA), 3.1 mM FeCl3-6H2O, 0.62 mM ZnCl2, 76 μM CuCl2-2H2O, 42 μM CoCl2-2H2O, 162 μM H3BO3, 8.1 μM MnCl2-4H2O). Prior to every experiment, cells were first inoculated into M9gluCAAT and grown to stationary phase at 37°C. For all assays except the biofilm experiments, the culture was diluted to 1/10,000 or more in fresh medium and grown at 37°C until it reached an optical density at 600 nm (OD) of 0.2–0.4. For the biofilm experiments, cells were grown in M9gluCAAT supplemented with 100 μg/mL ampicillin to maintain the GFP-expressing plasmid. The overnight stationary-phase cultures were then diluted into the same medium to an OD of 0.015. See below for details on biofilm growth.
Except for the biofilm experiments, the strains used in this study were derived from MG1655 (ATCC 47076), which was used to estimate the minimum inhibitory concentration (MIC) for all the studied peptides (or peptoids) using a microplate reader (Figure 1A). To detect the timing of outer and inner membrane permeabilization to proteins, strain CJW7845 was constructed to carry two freely diffusing fluorescent proteins: mScarlet-I in the periplasm and mTagBFP2 in the cytoplasm. Construction of CJW7845 was done by transforming pBAD-mTagBFP2 plasmid (Addgene #34632, a gift from Vladislav Verkhusha; ([Subach et al., 2011])) into an E. coli strain expressing a periplasmic mScarlet-I reporter ([Cañas-Duarte 2021]), as previously described ([Chung et al., 1989]). Transformants were restreaked on fresh selection plates and confirmed via microscopy.
(§1) To determine the minimal inhibitory concentration (MIC) of the selected AMPs against either MG1655 or ATCC 25922 E. coli strains, exponentially growing cells were diluted in fresh medium to an OD = 10^−6 (~500 cells/mL) and mixed 50:50 with titrated AMP concentrations (which were chosen to be over a range that included the MIC) in a 96-well plate (flat bottom with low evaporation lid, 3595, Corning, Arizona, USA). A final OD of 5 × 10^−7 corresponds to ~250 cells/mL. OD curves were sampled every 5 min for a total of 48 h using a microplate reader (BioTek Synergy 2, Agilent Technologies Inc., California, USA). Raw data were exported as a text file and analysed using a custom-written Python script (microplate_reader_analysis.py). To measure maximum growth rates, the log(OD) was fitted using a linear regression over a 12-point moving window (60 min), which provides the instantaneous growth rate (log(OD)/h), from which the global maximum was computed. The MIC was defined as the minimum AMP concentration for which the maximum growth rate was < 0.2 log(OD)/h within the first 20 h of incubation. Each MIC experiment was performed independently at least three times (with at least two technical replicates each), and the mode across all replicates was taken as the final MIC; in the rare cases of a tie, an additional replicate was performed, which was sufficient to resolve it.

[2] = test system: E. coli ATCC 25922; assay type: cell-based, Escherichia coli
Procedure: Strain ATCC 25922GFP (ATCC, Virginia, USA), which carries a GFP-expressing plasmid, was selected for biofilm experiments. The strain’s ability to form biofilms was first verified at 37°C using Congo Red staining on agar plate containing M9gluCAAT. Congo Red dye binds curli, a major component of the biofilm extracellular matrix. Strain ATCC 25922 (lacking the GFP-expressing plasmid) was used for MIC determination (to avoid interference from the presence of ampicillin required to maintain the plasmid) following the standard growth protocol described above.
as §1

| Molecule | MIC (mode MIC) [1] [µM] | MIC (mode MIC) ([2]; ATCC 25922, 20 h) [µM] | MIC (mode MIC) ([2]; E. coli ATCC 25922, M9gluCAAT, 37°C, 20 h, mode across four biological replicates) [µM] |
| --- | --- | --- | --- |
| CC[C@H](C)[C@H](N)C(=O)N[C@@H](CC(C)C)C(=O)N1CCC[C@H]1C(=O)N[C@@H](Cc1c[nH]c2ccccc12)C(=O)N[C@@H](CCCCN)C(=O)N[C@@H](Cc1c[nH]c2ccccc12)C(=O)N1CCC[C@H]1C(=O)N[C@@H](Cc1c[nH]c2ccccc12)C(=O)N[C@@H](Cc1c[nH]c2ccccc12)C(=O)N1CCC[C@H]1C(=O)N[C@@H](Cc1c[nH]c2ccccc12)C(=O)N[C@@H](CCCNC(=N)N)C(=O)N[C@@H](CCCNC(=N)N)C(N)=O [Indo, indolicidin] | 12.5 | – | 6.2 |
| KWKLFKKIEKVGQNIRDGIIKAGPAVAVVGQATQIAK-NH2 [CecA, cecropin A] | 0.5 | 0.5 | – |
| RRIRPRPPRLPRPRPRPLPFPRPGPRPIPRPLPFP [Bac7, bactenecin-7] | 0.6 | 0.6 | – |

The next lines start with results.

| MIC (mode MIC) [1] [µM] | MIC (mode MIC) ([2]; ATCC 25922, 20 h) [µM] | Molecule | MIC (mode MIC) ([2]; E. coli ATCC 25922, M9gluCAAT, 37°C, 20 h, mode across four biological replicates) [µM] |
| --- | --- | --- | --- |
| 1 | 1 | RRIRFRPPYLPRPGRRPRFPPPFPIPRIPRIP [Tur1A] | – |
| 2 | 1 | RRRPRPPYLPRPRPPPFFPPRLPPRIPPGFPPRFPPRFP-NH2 [PR-39] | – |
